Measured values as given in patent US12415794B2 (Edgewise Therapeutics, Inc., priority 2018, dated 2025).

How the values were obtained:
[1] = molecular target: skeletal myofibrils (myosin ATPase); test: Skeletal Myofibril ATPase Assay; type: biochemical
How it was run: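 Skeletal myofibril ATPase measured by PK-LDH coupled NADH depletion, absorbance 340 nm read every 1.5-2 min over 45 min. Max−min rate normalized to 1% DMSO vehicle as 100%; IC50 from four-parameter logistic fit with bottom ≥0. Cardiac myofibrils used as counter-screen.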

[2] = molecular target: T1, cardiac myofibrils (myosin ATPase); test: Cardiac Myofibril ATPase Assay (counter screen); type: biochemical; settings: myofibrils 1.0 mg/mL, KCl omitted
T1 construct: frozen myofibril pellets obtained from cardiac tissue; from tissue
T1 sequence (P12883 whole entry): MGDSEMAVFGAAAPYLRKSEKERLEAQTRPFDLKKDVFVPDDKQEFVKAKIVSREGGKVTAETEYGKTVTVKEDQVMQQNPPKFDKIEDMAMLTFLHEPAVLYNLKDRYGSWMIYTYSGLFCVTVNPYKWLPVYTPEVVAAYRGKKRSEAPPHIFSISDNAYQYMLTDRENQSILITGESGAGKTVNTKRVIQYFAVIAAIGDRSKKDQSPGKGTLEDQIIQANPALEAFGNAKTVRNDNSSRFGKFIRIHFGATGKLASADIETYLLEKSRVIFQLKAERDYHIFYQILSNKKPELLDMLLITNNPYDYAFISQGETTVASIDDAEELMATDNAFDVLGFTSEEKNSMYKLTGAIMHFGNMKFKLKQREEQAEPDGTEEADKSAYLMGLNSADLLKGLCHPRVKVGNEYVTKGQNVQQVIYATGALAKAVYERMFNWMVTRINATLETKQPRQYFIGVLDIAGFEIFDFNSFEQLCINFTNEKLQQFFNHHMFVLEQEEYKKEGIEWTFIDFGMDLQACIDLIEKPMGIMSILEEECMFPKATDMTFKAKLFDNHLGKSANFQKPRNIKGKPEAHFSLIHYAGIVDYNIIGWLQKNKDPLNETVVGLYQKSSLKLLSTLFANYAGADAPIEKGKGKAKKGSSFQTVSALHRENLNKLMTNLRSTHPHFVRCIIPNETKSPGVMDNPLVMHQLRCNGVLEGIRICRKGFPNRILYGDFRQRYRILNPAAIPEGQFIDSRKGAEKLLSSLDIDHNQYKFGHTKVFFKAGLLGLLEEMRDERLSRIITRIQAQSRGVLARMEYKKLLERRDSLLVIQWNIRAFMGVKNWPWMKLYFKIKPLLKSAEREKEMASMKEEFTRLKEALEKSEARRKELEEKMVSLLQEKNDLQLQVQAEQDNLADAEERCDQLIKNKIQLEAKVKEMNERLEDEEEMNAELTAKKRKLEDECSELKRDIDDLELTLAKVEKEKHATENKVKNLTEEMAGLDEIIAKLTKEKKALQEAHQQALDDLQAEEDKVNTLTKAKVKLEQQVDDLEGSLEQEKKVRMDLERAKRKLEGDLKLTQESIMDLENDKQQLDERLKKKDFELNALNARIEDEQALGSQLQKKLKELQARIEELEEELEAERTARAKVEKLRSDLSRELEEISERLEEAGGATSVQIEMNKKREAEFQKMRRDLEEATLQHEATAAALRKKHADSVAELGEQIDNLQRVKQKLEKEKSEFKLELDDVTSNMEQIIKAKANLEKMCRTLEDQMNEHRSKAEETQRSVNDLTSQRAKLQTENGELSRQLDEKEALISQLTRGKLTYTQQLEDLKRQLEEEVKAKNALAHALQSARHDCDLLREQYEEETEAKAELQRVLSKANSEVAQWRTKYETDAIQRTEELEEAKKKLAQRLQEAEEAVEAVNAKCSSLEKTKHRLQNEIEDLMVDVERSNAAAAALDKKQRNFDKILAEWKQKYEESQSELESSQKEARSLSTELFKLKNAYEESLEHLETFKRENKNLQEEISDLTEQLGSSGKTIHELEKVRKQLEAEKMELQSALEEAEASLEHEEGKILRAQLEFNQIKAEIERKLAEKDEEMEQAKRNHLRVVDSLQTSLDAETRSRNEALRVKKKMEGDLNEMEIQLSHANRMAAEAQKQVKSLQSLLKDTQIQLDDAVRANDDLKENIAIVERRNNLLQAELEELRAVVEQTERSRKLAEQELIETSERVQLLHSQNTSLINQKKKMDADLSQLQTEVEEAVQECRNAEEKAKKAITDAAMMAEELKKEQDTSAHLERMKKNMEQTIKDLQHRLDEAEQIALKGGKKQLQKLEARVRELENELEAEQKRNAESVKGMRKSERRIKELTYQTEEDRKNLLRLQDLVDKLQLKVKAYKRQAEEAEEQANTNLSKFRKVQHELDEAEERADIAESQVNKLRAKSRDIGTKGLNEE
T1 sequence (P08590 whole entry partner): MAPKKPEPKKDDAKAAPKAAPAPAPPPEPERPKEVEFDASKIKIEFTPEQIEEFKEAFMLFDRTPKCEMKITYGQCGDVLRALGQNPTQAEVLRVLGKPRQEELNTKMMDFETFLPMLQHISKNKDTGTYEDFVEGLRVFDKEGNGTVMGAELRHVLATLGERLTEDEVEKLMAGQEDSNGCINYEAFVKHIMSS
T1 sequence (P10916 whole entry partner): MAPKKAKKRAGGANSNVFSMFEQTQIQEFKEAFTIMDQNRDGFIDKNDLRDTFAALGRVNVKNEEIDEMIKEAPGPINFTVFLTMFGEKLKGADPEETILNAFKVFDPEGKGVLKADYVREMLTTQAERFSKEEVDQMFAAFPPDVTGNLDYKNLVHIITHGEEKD
How it was run: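 Frozen cardiac myofibrils at 1.0 mg/mL final, KCl omitted, in a PK-LDH coupled ATPase assay; ADP production tracked as NADH loss by absorbance at 340 nm. Inhibition taken as reduced rate relative to vehicle controls, with IC50 derived.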

Row | SMILES | IC50 ([1]; Table 4C) [µM] | IC50 ([2]; Table 5C) [µM] | IC50 ([1]; Table 4A) [µM] | IC50 ([2]; Table 5A) [µM] | further results
1 | COc1ccc(-c2ccc(=O)n(CC(=O)NCc3cccc(Cl)c3)n2)cc1 [IIIa-8, N-(3-chlorobenzyl)-2-(3-(4-methoxyphenyl)-6-oxopyridazin-1(6H)-yl)acetamide] | < 10 | > 100 |  |  | 
2 | CCNC(=O)Cn1nc(-c2ccc(NC(C)=O)cc2)ccc1=O [II-2, 2-(3-(4-acetamidophenyl)-6-oxopyridazin-1(6H)-yl)-N-ethylacetamide] |  |  |  |  | IC50 ([1]; Table 4B): < 10 µM; IC50 ([2]; Table 5B): > 100 µM
3 | CCCCNC(=O)Cn1nc(-c2ccc(OC(F)F)cc2)ccc1=O [II-17, N-butyl-2-(3-(4-(difluoromethoxy)phenyl)-6-oxopyridazin-1(6H)-yl)acetamide] |  |  |  |  | IC50 ([1]; Table 4B): 10 to 100 µM; IC50 ([2]; Table 5B): > 100 µM
4 | COc1ccc(-c2ccc(=O)n(CC(=O)NCc3ccccc3Cl)n2)cc1F [IIIa-24, N-(2-chlorobenzyl)-2-(3-(3-fluoro-4-methoxyphenyl)-6-oxopyridazin-1(6H)-yl)acetamide] | 10 to 100 | > 100 |  |  | 
5 | CC[C@H](C)NC(=O)Cn1nc(-c2ccccc2)ccc1=O [IIIc-57, (S)-N-(sec-butyl)-2-(6-oxo-3-phenylpyridazin-1(6H)-yl)acetamide] | 10 to 100 | > 100 |  |  | 
6 | COc1ccc(-c2ccc(=O)n(CC(=O)NCc3ccccc3)n2)c(F)c1 [IIIb-54, N-benzyl-2-(3-(2-fluoro-4-methoxyphenyl)-6-oxopyridazin-1(6H)-yl)acetamide] | > 100 | > 100 |  |  | 
7 | COc1ccc(-c2ccc(=O)n(CC(=O)NCCC3=CCCCC3)n2)cc1 [IIIb-14, N-(2-(cyclohex-1-en-1-yl)ethyl)-2-(3-(4-methoxyphenyl)-6-oxopyridazin-1(6H)-yl)acetamide] | < 10 | > 100 |  |  | 
8 | COc1ccc(-c2ccc(=O)n(CC(=O)NCc3ccc(Cl)cc3Cl)n2)cc1 [IIIa-12, N-(2,4-dichlorobenzyl)-2-(3-(4-methoxyphenyl)-6-oxopyridazin-1(6H)-yl)acetamide] | < 10 | > 100 |  |  | 
9 | COc1ccc(-c2ccc(=O)n(CC(=O)NCc3ccco3)n2)cc1 [IIIb-53, N-(furan-2-ylmethyl)-2-(3-(4-methoxyphenyl)-6-oxopyridazin-1(6H)-yl)acetamide] | > 100 | > 100 |  |  | 
10 | CCc1ccc(-c2ccc(=O)n(CC(=O)Nc3ccc4c(c3)OCCO4)n2)cc1 [IIIb-44, N-(2,3-dihydrobenzo[b][1,4]dioxin-6-yl)-2-(3-(4-ethylphenyl)-6-oxopyridazin-1(6H)-yl)acetamide] | > 100 | > 100 |  |  | 
11 | COc1ccc(Cl)cc1NC(=O)Cn1nc(-c2ccccc2)ccc1=O [IIIc-62, N-(5-chloro-2-methoxyphenyl)-2-(6-oxo-3-phenylpyridazin-1(6H)-yl)acetamide] | > 100 | > 100 |  |  | 
12 | COc1ccc(-c2ccc(=O)n(CC(=O)NC3(c4ccccc4Cl)CC3)n2)cc1 [IIIa-20, N-(1-(2-chlorophenyl)cyclopropyl)-2-(3-(4-methoxyphenyl)-6-oxopyridazin-1(6H)-yl)acetamide] | 10 to 100 | > 100 |  |  | 
13 | O=C(Cn1nc(-c2ccccc2)ccc1=O)Nc1ccc2c(c1)OCCO2 [IIIc-64, N-(2,3-dihydrobenzo[b][1,4]dioxin-6-yl)-2-(6-oxo-3-phenylpyridazin-1(6H)-yl)acetamide] | > 100 | > 100 |  |  | 
14 | COc1ccc(-c2ccc(=O)n(CC(=O)Nc3cc(Cl)ccc3Cl)n2)c(F)c1 [IIIb-13, N-(2,5-dichlorophenyl)-2-(3-(2-fluoro-4-methoxyphenyl)-6-oxopyridazin-1(6H)-yl)acetamide] | < 10 | > 100 |  |  | 
15 | O=C(Cn1nc(-c2ccccc2)ccc1=O)Nc1ccc2[nH]ccc2c1 [IIIc-49, N-(1H-indol-5-yl)-2-(6-oxo-3-phenylpyridazin-1(6H)-yl)acetamide] | < 10 | > 100 |  |  | 
16 | COc1ccc(-c2ccc(=O)n(CC(=O)NCc3ccc(C)cc3)n2)cc1 [IIIa-15, 2-(3-(4-methoxyphenyl)-6-oxopyridazin-1(6H)-yl)-N-(4-methylbenzyl) acetamide] | < 10 | > 100 |  |  | 
17 | CCNC(=O)Cn1nc(-c2ccc(OC3CC(F)(F)C3)nc2)ccc1=O [Compound I-75, 2-(3-(6-(3,3-difluorocyclobutoxy)pyridin-3-yl)-6-oxopyridazin-1(6H)-yl)-N-ethylacetamide] |  |  | 10 to 100 | > 100 | 
18 | COc1ccc(NC(=O)Cn2nc(-c3ccc(F)cc3)ccc2=O)c(OC)c1 [IIIc-31, N-(2,4-dimethoxyphenyl)-2-(3-(4-fluorophenyl)-6-oxopyridazin-1(6H)-yl)acetamide] | 10 to 100 | > 100 |  |  | 
19 | COc1ccc(-c2ccc(=O)n(CC(=O)NCc3ccon3)n2)cc1 [IIIa-26] | 10 to 100 | > 100 |  |  | 
20 | COc1ccc(-c2ccc(=O)n(CC(=O)NCCc3ccccc3)n2)cc1 [IIIa-5, 2-(3-(4-methoxyphenyl)-6-oxopyridazin-1(6H)-yl)-N-phenethylacetamide] | < 10 | > 100 |  |  | 
21 | O=C(Cn1nc(-c2ccc(Cl)cc2)ccc1=O)Nc1ccc2[nH]ccc2c1 [IIIc-22, 2-(3-(4-chlorophenyl)-6-oxopyridazin-1(6H)-yl)-N-(1H-indol-5-yl)acetamide] | < 10 | > 100 |  |  | 
22 | CCNC(=O)Cn1nc(-c2ccc(OC(F)F)cc2)c(C)cc1=O [II-19, 2-(3-(4-(difluoromethoxy)phenyl)-4-methyl-6-oxopyridazin-1(6H)-yl)-N-ethylacetamide] |  |  |  |  | IC50 ([1]; Table 4B): 10 to 100 µM; IC50 ([2]; Table 5B): > 100 µM
23 | COc1ccc(-c2ccc(=O)n(CC(=O)NCc3ccco3)n2)cc1 [IIIb-37, N-(furan-2-ylmethyl)-2-(3-(4-methoxyphenyl)-6-oxopyridazin-1(6H)-yl)acetamide] | 10 to 100 | > 100 |  |  | 
24 | CC(C)OCCCNC(=O)Cn1nc(-c2ccc(Cl)cc2)ccc1=O [IIIc-33, 2-(3-(4-chlorophenyl)-6-oxopyridazin-1(6H)-yl)-N-(3-isopropoxypropyl)acetamide] | 10 to 100 | > 100 |  |  | 
25 | CC(C)NC(=O)Cn1nc(-c2ccc(OC(F)(F)F)cc2)ccc1=O [II-4] |  |  |  |  | IC50 ([1]; Table 4B): < 10 µM; IC50 ([2]; Table 5B): > 100 µM
26 | COc1ccc(-c2ccc(=O)n(CC(=O)Nc3cccc(Cl)c3)n2)cc1 [IIIb-52, N-(3-chlorophenyl)-2-(3-(4-methoxyphenyl)-6-oxopyridazin-1(6H)-yl)acetamide] | > 100 | > 100 |  |  | 
27 | COc1ccc(-c2ccc(=O)n(CC(=O)Nc3ccc4c(c3)OCO4)n2)cc1 [IIIb-28, N-(benzo[d][1,3]dioxol-5-yl)-2-(3-(4-methoxyphenyl)-6-oxopyridazin-1(6H)-yl)acetamide] | 10 to 100 | > 100 |  |  | 

Now from value to compound, other results behind:

Row | IC50 ([1]; Table 4C) [µM] | IC50 ([2]; Table 5C) [µM] | IC50 ([1]; Table 4A) [µM] | IC50 ([2]; Table 5A) [µM] | SMILES | further results
28 |  |  | < 10 | > 100 | CCCOc1ncc(-c2ccc(=O)n(CC(=O)NC3CCC3)n2)cn1 [Compound I-73, N-cyclobutyl-2-(6-oxo-3-(2-propoxypyrimidin-5-yl)pyridazin-1(6H)-yl)acetamide] | 
29 |  |  | > 100 | > 100 | CCNC(=O)Cn1nc(-c2ccc(N3CC4(COC4)C3)nc2)ccc1=O [Compound I-31, 2-(3-(6-(2-oxa-6-azaspiro[3.3]heptan-6-yl)pyridin-3-yl)-6-oxopyridazin-1(6H)-yl)-N-ethylacetamide] | 
30 |  |  | < 10 | > 100 | O=C(Cn1nc(-c2ccc(OC(F)F)nc2)ccc1=O)NC1CCC1 [Compound I-4, N-cyclobutyl-2-(3-(6-(difluoromethoxy)pyridin-3-yl)-6-oxopyridazin-1(6H)-yl)acetamide] | 
31 |  |  | < 10 | > 100 | COc1ccc(-c2ccc(=O)n(CC(=O)NCc3ccccc3Cl)n2)cn1 [Compound I-5, N-(2-chlorobenzyl)-2-(3-(6-methoxypyridin-3-yl)-6-oxopyridazin-1(6H)-yl)acetamide] | 
32 |  |  | 10 to 100 | > 100 | CCNC(=O)Cn1nc(-c2ccc(OCC3(C)COC3)nc2)ccc1=O [Compound I-24, N-ethyl-2-(3-(6-((3-methyloxetan-3-yl)methoxy)pyridin-3-yl)-6-oxopyridazin-1(6H)-yl)acetamide] | 
33 |  |  | < 10 | > 100 | O=C(Cn1nc(-c2cnc(NC34CC(C3)C4)nc2)ccc1=O)NC1CCC1 [Compound I-50, 2-(3-(2-(bicyclo[1.1.1]pentan-1-ylamino)pyrimidin-5-yl)-6-oxopyridazin-1(6H)-yl)-N-cyclobutyl-acetamide] | 
34 |  |  | < 10 | 10 to 100 | CCNC(=O)Cn1nc(-c2ccc(N(C)C34CC(C3)C4)nc2)ccc1=O [Compound I-64, 2-(3-(6-(bicyclo[1.1.1]pentan-1-yl(methyl)amino)pyridin-3-yl)-6-oxopyridazin-1(6H)-yl)-N-ethylacetamide] | 
35 |  |  | < 10 | > 100 | O=C(Cn1nc(-c2cnc(OCC(F)(F)F)nc2)ccc1=O)NC12CC(C1)C2 [Compound I-51, N-(bicyclo[1.1.1]pentan-1-yl)-2-(6-oxo-3-(2-(2,2,2-trifluoroethoxy)pyrimidin-5-yl)pyridazin-1(6H)-yl)acetamide] | 
36 |  |  | 10 to 100 | > 100 | COc1ccc(-c2ccc(=O)n(CC(=O)NC(C)C)n2)cn1 [Compound I-16, N-isopropyl-2-(3-(6-methoxypyridin-3-yl)-6-oxopyridazin-1(6H)-yl)acetamide] | 
37 |  |  | < 10 | > 100 | O=C(Cn1nc(-c2ccc(OC(F)F)nc2)ccc1=O)NC1(c2ccccc2)CCC1 [Compound I-68, 2-(3-(6-(difluoromethoxy)pyridin-3-yl)-6-oxopyridazin-1(6H)-yl)-N-(1-phenylcyclobutyl)acetamide] | 
38 |  |  | 10 to 100 | > 100 | CCNC(=O)Cn1nc(-c2ccc(NC3CC(F)(F)C3)nc2)ccc1=O [Compound I-74, 2-(3-(6-((3,3-difluorocyclobutyl)amino)pyridin-3-yl)-6-oxopyridazin-1(6H)-yl)-N-ethylacetamide] | 
